From patent US8853424B2 (Japan Science and Technology Agency, priority 2008, dated 2014)
Read-outs that look alike come from different tables or passages of the source.

Tests used:
[1] = molecular target: T1, SOCE (ICRAC) reconstituted by STIM1 and Orail (CRACM1) (Homo sapiens, UniProt Q96D31); assay: ICRAC whole cell patch clamp in HEK293 cells forcibly expressing STIM1 and Orail (CRACM1); format: cell-based; conditions: inward current at −80 mV
T1 construct: expressed in transfected cells; host or cells: HEK293 cells
T1 sequence (Q96D31 whole entry): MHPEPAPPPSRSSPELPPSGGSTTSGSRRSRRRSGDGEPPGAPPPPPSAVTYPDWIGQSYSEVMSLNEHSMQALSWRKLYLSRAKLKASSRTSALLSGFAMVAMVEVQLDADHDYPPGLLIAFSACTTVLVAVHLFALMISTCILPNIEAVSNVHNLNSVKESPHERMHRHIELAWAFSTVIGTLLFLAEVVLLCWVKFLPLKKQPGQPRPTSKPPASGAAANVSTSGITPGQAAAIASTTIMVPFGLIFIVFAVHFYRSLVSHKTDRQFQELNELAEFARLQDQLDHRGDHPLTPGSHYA
Source text: FIG. 2 is a drawing showing an Icrac inhibitory effect of 163AE, and the vertical axis and the horizontal axis show the same as in FIG. 1.
The effects of 162AE (bis(3,3′-(phenylaminoethoxyboryl)benzyl)ether described in Example 8) and 163AE (bis(4,4′-(phenylaminoethoxyboryl)benzyl)ether described in Example 131) for ICRAC, whose molecular entity as one of SOCE has been clarified, were investigated using an electrophysiological method. STIM1 and Orail (CRACM1) were forcibly expressed in HEK293 cells, and whole cell records were taken by the Patch clamp technique. BAPTA (20 mM), which is a calcium chelator, and IP3 (20 μM) that depletes intracellular calcium store were added to a recording electrode internal solution (120 mM Cs-glutamate, 10 mM HEPES, 3 mM MgCl2), 10 mM calcium was added to an extracellular solution to facilitate observation of calcium electric current, and a ramp command from −150 mV to +150 mV was input at 0.5 Hz to obtain a current-voltage curve. For quantification of SOCE, the size of the inward current at −80 mV was used as an index. After the start of the whole cell recording, time was taken to sufficiently activate SOCE (ICRAC), and compounds 162AE and 163AE as inhibitors were administered to the cells. […]

[2] = test system: SOC (store operated calcium channel); assay: Measurement of SOC IC50 (thapsigargin store depletion, calcium re-addition, CHO cells); format: cell-based; conditions: read-out: SOC IC50
Procedure: The SOC (store operated calcium channel)-suppressive action can be measured by the method described in the Example and using, for example, FDSS 3000.
CHO cell culture medium was replaced with a BSS solution which is an extracellular fluidfree of calcium, the compound of the present invention was added 1 min later, and 1 μM thapsigargin was allowed to act thereon 2 min later to deplete intracellular calcium store. […]

[3] = test system: Truncated N-terminal huntington 150 Q-EGFP-Neuron 2a cells; assay: Measurement of x-Fold (polyglutamine aggregation inhibitory activity); format: cell-based
Procedure: In the present invention, the polyglutamine aggregation inhibitory activity (x-Fold) can be measured, for example, by the method described in the Example.
The number of the aggregated cells, and the total number of cells were counted by Array Scan V T1 (manufactured by Cellomics, Pittuburg, USA), and the ratio of the aggregated cells to the total number of cells was determined (x-Fold). […]

transglutaminase (TGase) = assay: Measurement of TG (TGase inhibitory activity, monodansyl cadaverine / N,N-dimethylcasein fluorescence, FDSS 3000); format: biochemical
In short: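 Compound (1 μL of 10 mM stock) added to 0.1 mL reaction: 100 mM HEPES-NaOH pH 7.5, 1 mM CaCl2, 20 μM monodansyl cadaverine, 0.05 mg/mL N,N-dimethylcasein, 5 μg/mL TGase. Rate of fluorescence change at 340 nm measured; DMSO control set to 100; TG50 is the concentration halving activity.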

[4] = polyglutamine aggregation inhibitory activity, Table 1
[5] = ratio of aggregated cells to total number of cells, compound 20 μM, 20 hr, almost 1 without compound, smaller = stronger inhibition

Compound NCCOB(c1ccccc1)c1ccc(COCc2ccc(B(OCCN)c3ccccc3)cc2)cc1 [Example 131, bis((4,4′-phenylaminoethoxyboryl)benzyl)ether] has an IC50 [1] of 170 nM, an IC50 ([2]; Cricetulus griseus, CHO, CHO cells, 1 μM thapsigargin, 2 mM calcium chloride) of 300 nM and an IC50 ([2]; Cricetulus griseus, CHO, Table 1) of 300 nM. For the same compound, the x-Fold [3, 4] was 1.1 and the x-Fold [3, 5] was 1.1.
For NCCOB(c1ccccc1)c1cccc(COCc2cccc(B(OCCN)c3ccccc3)c2)c1 [Example 8, bis(3,3′-(phenylaminoethoxyboryl)benzyl)ether], the IC50 [1] was 86 nM, the IC50 ([2]; CHO cells, 1 μM thapsigargin, 2 mM calcium chloride) was 200 nM and the x-Fold [3, 4] was 1.1. The x-Fold [3, 5] was 1.1, the “TGase activity remaining (% of DMSO control = 100)” value (transglutaminase (TGase); TGase activity with compound (10 mM, 1 μL in 0.1 ml enzyme reaction solution), DMSO control taken as 100) was 24 and the “TGase activity remaining (% of DMSO control = 100)” value (transglutaminase (TGase); TGase inhibitory activity value, Table 1) was 24.
